Structures can show the parent of a compound that is named as a salt.
How the values were obtained:
mouse neural stem cells [1] = experiment: Real-time RT-PCR of neuronal / dopaminergic markers in cultured neural stem cells; assay type: cell-based; conditions: 4 days; for Tuj1 (marker of neurons) expression / tyrosine hydroxylase (TH) expression: AS703026, AZD8330 10 μM, PD318088, Trametinib, Refametinib 1 μM; for Tuj1 (marker of neurons) expression: FIG. 8B; for tyrosine hydroxylase (TH) expression: FIG. 8C
Procedure: Neural stem cells were isolated from the brain of a day 14.5 mouse embryo, treated with 10 ng/ml human basic fibroblast growth factor (bFGF) (Peprotech, Princeton, N.J.) and 20 ng/ml human epidermal growth factor (EGF) (Peprotech) in a N2 culture medium, and cultured in suspension in a 25 cm^2 flask (Nunc, Pittsburgh, Pa.) for 4 days.
Neurospheres were treated with TrypLE and then separated into single cells, which were uniformly seeded into a culture dish coated with 15 μg/ml poly-L-ornithine and 10 μg/ml fibronectin. Following culture, the morphology of the cells was observed.
The N2 culture medium was Dulbecco's modified Eagle's medium (DMEM)/F12 (1:1) supplemented with 100 μM putrescine, 30 nM selenite, 20 nM progesterone, 1.55 mg/ml d-(+)-glucose, 25 μg/ml insulin, […] apo-transferrin, 0.5 mM alanyl glutamine, 100 IU/ml penicillin, and 100 μg/ml streptomycin.
(§1) Mouse neural stem cells were cultured in accordance with the procedure of Example 1. […] The cells were cultured for 4 days.
(§2) Neurospheres were treated with TrypLE and separated into single cells, which were uniformly seeded into a culture dish coated with 15 μg/ml poly-L-ornithine and 10 μg/ml fibronectin. Following culture, the morphology of the cells was observed.
To this end, real-time (RT) PCR analysis was performed on neuron-specific markers. On day 4 after in vitro differentiation, mRNA expression was identified. The numbers in the graph indicate average values of mRNA expression levels relative to the respective controls from real-time PCR analyses in triplicate.
(§3) In this example, it was confirmed whether dopaminergic neurons were differentiated from neural stem cells.

mouse neural stem cells [2] = experiment: Morphological analysis of treated neural stem cells; assay type: cell-based; conditions: AS703026, AZD8330 10 μM; PD318088, Trametinib, Refametinib 1 μM; 4 days; FIG. 8A
Procedure: as §1, §2, §3

neural stem cells = experiment: Differentiation of neural stem cells into dopaminergic neurons (general statements, no separate method); assay type: cell-based, mouse; conditions: MEK 1 inhibitor, no MEK 2 inhibition
mouse neural stem cells [3] = experiment: Cell cycle analysis by PI staining and flow cytometry; assay type: cell-based; conditions: 10 μM, 4 days; PI staining; FIG. 2C
Procedure: Specifically, the cell cycles were analyzed by the following procedure. First, the cells (Example 1, Example 2, and Comparative Example 1) were washed twice with cold PBS and fixed in cold 70% ethanol for 30 min. The ethanol was removed by centrifugation, the cells were suspended, and the number of the cells was adjusted to 10^6/ml. The cells were washed twice with PBS, treated with 50 μg/ml propidium iodide (PI) at room temperature in the presence of RNase, and cultured for 30 min. Finally, the number of the cells was counted using a FACS Calibur flow cytometer (BD Biosciences, USA). Apoptosis was analyzed as follows. The cells were washed twice with cold PBS, treated with propidium iodide (PI) and Annexin V FITC at room temperature, and cultured for 15 min. PI and FITC fluorescence intensities were measured using a FACS flow cytometer. Data were analyzed with the Cell-quest FACS analysis software (BD Biosciences). The results are shown in FIGS. 2A, 2B, 2C, 3A, 3B and 3C. FIGS. 2A, 2B, 2C, 3A, 3B and 3C show the results of flow cytometry for the neural progenitor cells (undifferentiated; UD) cultured in Example 1, the differentiated cells (D) cultured in Comparative Example 1, and the AS703026-treated cells (UD+AS) cultured in Example 2 to identify the cycles of the cells. […]

mouse neural stem cells [4] = experiment: Immunocytochemical analysis of marker expression in cultured neural stem cells; assay type: cell-based; conditions: 10 μM, 4 days
Procedure: Mouse neural stem cells were cultured in accordance with the procedure of Example 1. […] The cells were cultured for 4 days. Neurospheres were treated with TrypLE and separated into single cells, which were uniformly seeded into a culture dish coated with 15 μg/ml poly-L-ornithine and 10 μg/ml fibronectin. Following culture, the morphology of the cells was observed. […] In this example, it was confirmed whether dopaminergic neurons were differentiated from neural stem cells. To this end, immunoblot analysis and immunocytochemical analysis were performed on the neural progenitor cells (undifferentiated; UD) cultured in Example 1, the differentiated cells (D) cultured in Comparative Example 1, and the AS703026-treated cells (UD+AS) cultured in Example 2, and the results were compared. The immunocytochemical analysis was performed by the following procedure. First, the cells were fixed in 4% para-formaldehyde at room temperature for 10 min, washed with PBS, and incubated with 0.2% Triton X-100 at room temperature for 15 min. After blocking with 10% BSA at room temperature for 1 h, the cells were incubated with anti-Tuj1 (Covance, Princeton, N.J.), anti-GFAP (Biogenex, San Ramon, Calif.), anti-MBP (Abcam), anti-Ki67 (Abcam), anti-p-ERK1/2 or anti-TH antibodies at 4° C. overnight, and cultured using Alexa Fluor 488- or Alexa Fluor 555-conjugated IgG secondary antibodies (Molecular Probes, Eugene, Oreg.) at room temperature for 1 h. Subsequently, the cells were cultured with 1 μg/ml 4′,6-diamidino-2-phenylindole (DAPI) for 5 min, the inlet was sealed with a coverslip, and the cells were observed using a confocal microscope. FIGS. 4 and 5 show the results of immunoblot analysis (FIG. 4) and immunocytochemical analysis (FIG. 5) for the neural progenitor cells (undifferentiated; UD) cultured in Example 1, the differentiated cells (D) cultured in Comparative Example 1, and the AS703026-treated cells (UD+AS) cultured in Example 2 to determine whether dopaminergic neurons were differentiated from the neural stem cells.

mouse neural stem cells [5] = experiment: Apoptosis analysis by annexin-V/PI flow cytometry; assay type: cell-based; conditions: 10 μM, 4 days
Procedure: Finally, the number of the cells was counted using a FACS Calibur flow cytometer (BD Biosciences, USA). Apoptosis was analyzed as follows. The cells were washed twice with cold PBS, treated with propidium iodide (PI) and Annexin V FITC at room temperature, and cultured for 15 min. PI and FITC fluorescence intensities were measured using a FACS flow cytometer. Data were analyzed with the Cell-quest FACS analysis software (BD Biosciences). The results are shown in FIGS. 2A, 2B, 2C, 3A, 3B and 3C. FIGS. 2A, 2B, 2C, 3A, 3B and 3C show the results of flow cytometry for the neural progenitor cells (undifferentiated; UD) cultured in Example 1, the differentiated cells (D) cultured in Comparative Example 1, and the AS703026-treated cells (UD+AS) cultured in Example 2 to identify the cycles of the cells. Specifically, FIGS. 2A, 2B and 2C are histograms showing the results of flow cytometry for the cells stained with PI. FIGS. 3A, 3B and 3C are scatter plot diagrams showing the results of flow cytometry for the cells stains with annexin-V/PI.

[6] = test system: ventral midbrains of embryos of pregnant mouse models; experiment: Intraperitoneal administration to pregnant mice; marker expression in embryonic ventral midbrains (immunocytochemistry, RT-PCR); assay type: in vivo
Procedure: After the same amount of distilled water (D.W) as control was administered intraperitoneally to pregnant mouse models at 10.5 days of gestation daily for 4 consecutive days, the expression levels of the markers in the ventral midbrains, where dopaminergic neurons were most abundantly distributed, were analyzed. The control is marked as “Vehicle” in FIGS. 6 and 7.
Proteins and mRNAs isolated from the brains of the sacrificed embryos were analyzed by RT-PCR.

mouse neural stem cells [7] = experiment: Immunoblot analysis of marker expression in cultured neural stem cells; assay type: cell-based
Procedure: Mouse neural stem cells were cultured in accordance with the procedure of Example 1. […] The cells were cultured for 4 days. Neurospheres were treated with TrypLE and separated into single cells, which were uniformly seeded into a culture dish coated with 15 μg/ml poly-L-ornithine and 10 μg/ml fibronectin. Following culture, the morphology of the cells was observed. In this example, it was confirmed whether dopaminergic neurons were differentiated from neural stem cells. To this end, immunoblot analysis and immunocytochemical analysis were performed on the neural progenitor cells (undifferentiated; UD) cultured in Example 1, the differentiated cells (D) cultured in Comparative Example 1, and the AS703026-treated cells (UD+AS) cultured in Example 2, and the results were compared. The immunoblot analysis was performed by the following procedure. First, the cells were washed with ice-cold phosphate-buffered saline (PBS) and lysed with 1×RIPA buffer (10 mM HEPES, 1.5 mM MgCl2, 10 mM KCl, 0.01 M DTT, protease inhibitors, pH 7.9). The cell homogenate was heated at 100° C. for 10 min and subjected to 10-12% SDS-polyacrylamide gel electrophoresis. Proteins were electrophoretically transferred to a nitrocellulose membrane and blocked with 5% non-fat dry milk in TBS-Tween 20 (0.1%, v/v) for 1 h. Western blotting was performed using anti-Tuj1, anti-GFAP or anti-MBP antibodies and successively horseradish peroxidase-conjugated anti-rabbit or anti-mouse IgG secondary antibodies. The protein bands were visualized using enhanced chemiluminescence (ECL, lab made) and detected with LAS-3000 (FUJIFILM, Tokyo, Japan). FIGS. 4 and 5 show the results of immunoblot analysis (FIG. 4) and immunocytochemical analysis (FIG. 5) for the neural progenitor cells (undifferentiated; UD) cultured in Example 1, the differentiated cells (D) cultured in Comparative Example 1, and the AS703026-treated cells (UD+AS) cultured in Example 2 to determine whether dopaminergic neurons were differentiated from the neural stem cells. […] The AS703026-treated cells were cultured in the same manner as in Example 2. […]

[8] = i.p. to pregnant mice from 10.5 days of gestation, daily for 4 days, vs distilled water

In the case of `O=C(NOCC(O)CO)c1cc(Br)c(F)c(F)c1Nc1ccc(I)cc1F` (centres unmarked) [PD318088], the “Tuj1 (marker of neurons) expression” value (mouse neural stem cells [1]) is reported as “expressed only”, the “tyrosine hydroxylase (TH) expression” value (mouse neural stem cells [1]) is reported as “expressed only” and the “morphology of treated cells” value (mouse neural stem cells [2]) is reported as “neuron-like morphological changes”.

`COc1cc(F)c(F)c(Nc2ccc(I)cc2F)c1NS(=O)(=O)C1(C[C@H](O)CO)CC1` [Refametinib] was tested, and the “Tuj1 (marker of neurons) expression” value (mouse neural stem cells [1]) was “expressed only”, the “tyrosine hydroxylase (TH) expression” value (mouse neural stem cells [1]) was “expressed only” and the “morphology of treated cells” value (mouse neural stem cells [2]) was “neuron-like morphological changes”.

With `COc1cccc(-c2cc(=O)c3ccccc3o2)c1N` [PD98059] the “induction of differentiation of neural stem cells into dopaminergic neurons” value (neural stem cells) was “does not induce substantial differentiation”.

With `Cc1cc(C(=O)NOCCO)c(Nc2ccc(I)cc2F)n(C)c1=O` [AZD8330] the “Tuj1 (marker of neurons) expression” value (mouse neural stem cells [1]) was “expressed only”, the “tyrosine hydroxylase (TH) expression” value (mouse neural stem cells [1]) was “expressed only” and the “morphology of treated cells” value (mouse neural stem cells [2]) was “neuron-like morphological changes”.

For `O=C(NC[C@H](O)CO)c1ccncc1Nc1ccc(I)cc1F` [AS703026, N-[(2S)-2,3-dihydroxypropyl]-3-[(2-fluoro-4-iodophenyl)amino]isonicotinamide hydrochloride], the “expression level of GFAP (astrocyte differentiation factor)” value (mouse neural stem cells [1]; 10 μM, compared with Tuj1) was “lower than that of Tuj1”, the “expression level of MBP (oligodendrocyte differentiation factor)” value (mouse neural stem cells [1]; 10 μM, compared with Tuj1) was “lower than that of Tuj1” and the “expression level of Tuj1 (neuronal differentiation factor), times higher than UD and D cells” value (mouse neural stem cells [1]; 10 μM, vs undifferentiated (UD) and differentiated (D) cells, FIG. 1A) was “at least 10 times”. The “Tuj1 (marker of neurons) expression” value (mouse neural stem cells [1]) was “expressed only”, the “tyrosine hydroxylase (TH) expression” value (mouse neural stem cells [1]) was “expressed only” and the cell cycle (mouse neural stem cells [3]) was “arrested in the G0/G1 phase”. The “morphology of treated cells” value (mouse neural stem cells [2]) was “neuron-like morphological changes”, the “immune response to GFAP” value (mouse neural stem cells [4]) was “No immune responses” and the “immune response to MBP” value (mouse neural stem cells [4]) was “No immune responses”. The “number of clusters of dopaminergic neurons from which neurites extended outward” value (mouse neural stem cells [4]; FIG. 1B) was “increase”, the “number of dopaminergic neurons differentiated (Tuj1 immunocytochemistry)” value (mouse neural stem cells [4]; FIG. 1B) was “considerable increase” and the “tyrosine hydroxylase (TH) expression, immunocytochemistry” value (mouse neural stem cells [4]; vs UD and D cells, FIG. 5) was “expressed only”. The apoptosis (mouse neural stem cells [5]) was “does not induce apoptosis”, the “number of dopaminergic neurons formed in embryo brains vs non-administered animals” value ([6]; i.p. to pregnant mice at 10.5 days of gestation) was “approximately twice as large” and the “expression level of TH in embryo brains vs control” value [6, 8] was “significantly higher”. The “expression level of Tuj1 in embryo brains vs control” value [6, 8] was “significantly higher”, the “immune response to GFAP in embryo brains” value ([6]; i.p. to pregnant mice, 4 days) was “No immune responses” and the “immune response to MBP in embryo brains” value ([6]; i.p. to pregnant mice, 4 days) was “No immune responses”. For the same compound, the “differentiation into dopaminergic neurons in embryos (RT-PCR)” value ([6]; i.p. to pregnant mice, 4 days, FIG. 7) was “increased differentiation”, the “expression pattern of TH compared with cells of Example 2 (10 μM)” value (mouse neural stem cells [7]; 1 μM (UD+AS, 1)) was “similar” and the “expression pattern of TH compared with cells of Example 2 (10 μM)” value (mouse neural stem cells [7]; 5 μM (UD+AS, 5)) was “similar”. For the same compound, the “tyrosine hydroxylase (TH) expression, immunoblot” value (mouse neural stem cells [7]; 10 μM, 4 days, vs UD and D cells, FIG. 4) was “expressed only”.

From US10179132B2, “Composition for inducing differentiation of multipotent neural stem cells into dopaminergic neurons and method for inducing differentiation of multipotent neural stem cells into dopaminergic neurons by using the same” (INDUSTRY-ACADEMIC COOPERATION FOUNDATION, YONSEI UNIVERSITY, priority 2015, dated 2019)
